From patent US8395037B2, “Pharmaceutical compositions for treating/preventing motor organ diseases” (Mitsubishi Corporation, priority 2005, dated 2013)

Legend:
MMP-13 [1] = experiment: MMP-13 concentration in synovial fluid of osteoarthritis model knee joints (ELISA); format: in vivo, rabbit; settings: various concentrations, sequential measurement, versus control knees
Description: Sequential biochemical examinations of blood and synovial fluid were also performed (pre-administration and fourth- and eighth-week post-administration of water-solubilized fullerene). The observed biochemical examination items were (A) hepatic function (GOT and GPT), renal function (urea nitrogen and creatinine), and electrolytes (Na, K, and Cl), (B) extracellular matrix-degrading enzyme production ability (MMP-1, 3, and 13), and (C) cartilage matrix-synthesizing ability (proteoglycan). The items of (A) were measured by commercially available testing equipments and items of (B) and (C) were measured by ELISA method.

MMP-13 [2] = experiment: MMP-13 production in cultured chondrocytes treated with cartilage degenerating factor (ELISA); format: cell-based, human; settings: for Production of MMP-13: IL-1β or H2O2 treated chondrocytes, 50 or 100 μM, 24 h
Description: Chondrocytes isolated from human articular cartilage tissues were used for cultured cells. After obtaining informed consent, cartilage tissues were collected from surgically-removed tissues from eight osteoarthritis patients. The collected tissues were sliced and then treated in a liquid low-glucose Dulbecco's modified Eagle's medium (DMEM, manufactured by Gibco Co.) containing 1.5 mg/ml collagenase B at 37° C. overnight, to isolate chondrocytes for culture. The cells were normally cultured in a culture flask (culture area: 25 cm^2), and in a polystyrene culture dish (diameter: 6 cm) for use in the experiments. […]
Influence of hydroxylated C60 fullerene on cartilage matrix-degrading enzyme production which is enhanced by cartilage catabolism inducers was analyzed using the enzyme-linked immunoassay (ELISA) method.
Chondrocytes that had been isolated and cultured by the above method (1) were subjected to two passage cultures. […] After a 24 hour incubation, the culture supernatant was collected, and the concentrations of cartilage matrix-degrading enzymes, matrix metalloprotease (MMP)-1, 3, and 13, were measured.
The concentrations of MMP-1, MMP-3, and MMP-13 in the culture supernatant were determined using ELISA kits (kits for MMP-1 and MMP-3, manufactured by R&D Co.; and a kit for MMP-13, manufactured by Amersham), which is the standard technique currently known in the art. […] 100 μl of 1.5 N H3PO4 was added to each well to stop the color reaction, and the absorbance at 450 nm was measured using a microtiter plate reader. According to the instructions provided by the manufacturer, the measured concentrations were calibrated using a lyophilized control reagent.

hydroxylated C60 fullerene was tested, and the “MMP-13 concentration in synovial fluid” value (MMP-13 [1]) was “MMP-13 production inhibitory effect was observed”, the “Production of MMP-13” value (MMP-13 [2]) was “inhibited in all cases” and the “Production of MMP-13” value (MMP-13 [2]; listed as fullerene) was “decreased the amount of MMP-13 produced”. The “Inhibitory effect on production of MMP-13” value (MMP-13 [2]; hypoxic condition) was “also observed”.
